The TGI is the concentration giving total growth inhibition. A high value points to lower sensitivity of the cells. A word on the GI50: it is the concentration at which growth is held to half of that of the control.

SMILES strings stand for the structures.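 In this assay, cells in 96-well plates receive the compound at five concentrations for 48 hours. Endpoints are linearly interpolated between the surrounding concentrations. GI50 = concentration required for 50% inhibition of growth. Definition used: TGI = concentration required for complete inhibition of growth.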

Consider 27 molecules from PubChem BioAssay (NCI).

The subject of the first experiment is CAKI-1 renal. The experiment is described as follows: DTP human tumour cell line panel, 48 h.
In turn, `COC(=O)C[C@H]1CCC2(OCCO2)[C@]1(C)C(=O)OC` showed a total growth inhibition concentration (TGI) greater than 100 µM.
Still for that read-out and setting: then `CCCCCCCCCC[C@@H](O)[C@@H]1CC[C@H]([C@H]2CC[C@@H]([C@@H](O)CCCCCCCCCC[C@H]3CC(CC(C)=O)C(=O)O3)O2)O1` (stereo partly drawn), with 75.8 µM; and `CCOc1ccc2c(c1)[n+]([O-])c(S(=O)(=O)c1ccc(C)cc1)c(N)[n+]2[O-]`, with greater than 100 µM; and `CCOC(=O)NC(=O)c1cn(C2OC(COC(=O)CCCCCCCCC(=O)OCC3OC(n4cc(C(=O)NC(=O)OCC)c(=O)[nH]c4=O)C(O)C3O)C(O)C2O)c(=O)[nH]c1=O` (stereo not drawn), with greater than 100 µM.
Same read-out and setting: next, `Cc1ccc(C)c(NC(=O)CC/C(=N\NC(=O)C(=O)NN)C(C)C(=O)c2ccc(O)cc2)c1` (stereo not drawn): greater than 100 µM; `N=C1CSC2=NC3=C(CCC/C3=C\c3ccccc3)C(c3ccccc3)N12` (stereo not drawn): 29.2 µM.
The same measure, in the same setting: next, `COc1ccccc1C1C(C(=O)Nc2ccccc2)=C(C)NC(C)=C1C(=O)Nc1ccccc1`: greater than 100 µM; `Cc1cc2c(cc1C)[n+](=O)c(C(=O)CC(=O)C(=O)Nc1c(C(C)C)cccc1C(C)C)c(C)n2[O-]`: greater than 100 µM.
`O=C1CNCCCN2CCN(CCCNCC(=O)Nc3ccc(cc3)S(=O)(=O)c3ccc(cc3)NC(=O)CNCCCN3CCN(CCCNCC(=O)Nc4ccc(cc4)S(=O)(=O)c4ccc(cc4)N1)CC3)CC2` returned a TGI of 99.2 µM. In other words, the double-digit micromolar range.
In the case of `N#Cc1ccc(C#Cc2ccccc2C#CCCCCO)cc1`, the GI50 is 21 µM and the TGI stood at 39.8 µM.
Turning to `O=NN(Cc1ccc(Cl)cc1)C(C(=O)O)c1ccccc1` (stereo not drawn), the TGI was greater than 100 µM.

The test system of a further experiment is DLD-1 colon. The experiment is described as follows: DTP human tumour cell line panel, 48 h.
Consider `CC1(Cl)C(=O)NC(=O)N(C2CC(N=[N+]=[N-])C(CO)O2)C1N=[N+]=[N-]` (stereo not drawn), for which the concentration for total growth inhibition (TGI) is greater than 100 µM.
Still for that read-out and setting: then `COc1ccc2ccc3c(c2c1)CN1CCc2cc(OC)c(OC)cc2C1C3` (stereo not drawn), with greater than 100 µM; and `OCCC1(O)CCC(O)CC1` (stereo not drawn), with greater than 100 µM.
Still for that read-out and setting: then `CCCCNC1=C(C(=O)OCC)C(=O)CO1`, with greater than 100 µM.
For the molecule `CC(C)CC(=O)[O-].CC(C)CC(=O)[O-].N.N.N.N.[Co+3].[O-][Cl+3]([O-])([O-])[O-]`, the GI50 is greater than 100 µM and the concentration for total growth inhibition (TGI) is greater than 100 µM.
For `COc1cc(C2c3cc4c(cc3C(NCC(O)CO)C3COC(=O)[C@H]23)OCO4)cc(OC)c1OC` (stereo partly drawn), the concentration for total growth inhibition (TGI) was greater than 100 µM.
For `COC(=O)CC(=O)C[P+](c1ccccc1)(c1ccccc1)c1ccccc1`, the concentration for total growth inhibition (TGI) was greater than 218 µM.
Molecule `CCCCN(CCCC)C(=O)C(=O)C(C#N)c1ccc(C)cc1` (stereo not drawn) came in with a concentration for total growth inhibition (TGI) greater than 100 µM.
On the same count and under the same terms, next, `Cc1ccc(S(=O)(=O)C(CC(=O)N2CCCC2)C(=O)c2ccccc2)cc1` (stereo not drawn): greater than 100 µM.
The same measure, in the same setting: next, `CC1(C)CC(/C=C2/OC(=O)c3ccccc32)=C(C#N)C(=O)O1`: greater than 100 µM.
The same measure, in the same setting: next, `Cc1nc2c(nc1Cl)nc(Oc1ccc(Cl)cc1)c1ccccc12`: greater than 100 µM; `CC1OC(n2cc(F)c(=O)[nH]c2=O)CCC1O` (stereo not drawn): greater than 100 µM.
Consider `CCCCCCCCCC[C@@H](O)[C@@H]1CC[C@H]([C@H]2CC[C@@H]([C@@H](O)CCCCCCCCCC[C@H]3CC(CC(C)=O)C(=O)O3)O2)O1` (stereo partly drawn), for which the concentration for total growth inhibition (TGI) is 83 µM.
On the same count and under the same terms, then `CCOc1ccc2c(c1)[n+]([O-])c(S(=O)(=O)c1ccc(C)cc1)c(N)[n+]2[O-]`, with greater than 100 µM.
Molecule `CC12CC[C@@H](C(C)(C)O)C1[C@@H](O)CC1(C)C2CCC2[C@@]3(C)CC[C@H](O)C(C)(C)C3C(O)C[C@]21C` (stereo partly drawn) showed a total growth inhibition concentration (TGI) of 53.3 µM.
Same read-out and setting: then `CCOC(=O)NC(=O)c1cn(C2OC(COC(=O)CCCCCCCCC(=O)OCC3OC(n4cc(C(=O)NC(=O)OCC)c(=O)[nH]c4=O)C(O)C3O)C(O)C2O)c(=O)[nH]c1=O` (stereo not drawn), with greater than 100 µM.
In the case of `Cc1ccc(C)c(NC(=O)CC/C(=N\NC(=O)C(=O)NN)C(C)C(=O)c2ccc(O)cc2)c1` (stereo not drawn), the TGI is greater than 100 µM.
Still for that read-out and setting: next, `N=C1CSC2=NC3=C(CCC/C3=C\c3ccccc3)C(c3ccccc3)N12` (stereo not drawn): 19.4 µM; `CCCCCCCCCCCC(=O)CC(=O)c1c(O)cccc1O`: 32.4 µM.
The same measure, in the same setting: next, `COc1ccc2cc1Oc1ccc(cc1)CC1c3cc(c(OC)cc3CCN1C)Oc1c3c(cc4c1C(C2)N(C)CC4)OCO3` (stereo not drawn): 31.5 µM.

The subject of the next experiment is DMS 114 small cell lung. Briefly: DTP human tumour cell line panel, 48 h.
For `CC1(Cl)C(=O)NC(=O)N(C2CC(N=[N+]=[N-])C(CO)O2)C1N=[N+]=[N-]` (stereo not drawn), the concentration for total growth inhibition (TGI) is greater than 100 µM.
The same measure, in the same setting: then `COc1ccc2ccc3c(c2c1)CN1CCc2cc(OC)c(OC)cc2C1C3` (stereo not drawn), with greater than 100 µM.
Molecule `OCCC1(O)CCC(O)CC1` (stereo not drawn) displayed a TGI greater than 100 µM.
On the same count and under the same terms, next, `CCCCNC1=C(C(=O)OCC)C(=O)CO1`: greater than 100 µM; `COc1cc(C2c3cc4c(cc3C(NCC(O)CO)C3COC(=O)[C@H]23)OCO4)cc(OC)c1OC` (stereo partly drawn): 0.245 µM.
The molecule `COC(=O)CC(=O)C[P+](c1ccccc1)(c1ccccc1)c1ccccc1` showed a TGI greater than 218 µM.
The same measure, in the same setting: next, `CCCCN(CCCC)C(=O)C(=O)C(C#N)c1ccc(C)cc1` (stereo not drawn): greater than 100 µM; `Cc1ccc(S(=O)(=O)C(CC(=O)N2CCCC2)C(=O)c2ccccc2)cc1` (stereo not drawn): greater than 100 µM.
Same read-out and setting: then `Cc1nc2c(nc1Cl)nc(Oc1ccc(Cl)cc1)c1ccccc12`, with greater than 100 µM; and `CC(=O)Nc1ccccc1Sc1ccccc1`, with greater than 100 µM; and `COC(=O)C[C@H]1CCC2(OCCO2)[C@]1(C)C(=O)OC`, with greater than 100 µM.
The same measure, in the same setting: next, `CCCCCCCCCC[C@@H](O)[C@@H]1CC[C@H]([C@H]2CC[C@@H]([C@@H](O)CCCCCCCCCC[C@H]3CC(CC(C)=O)C(=O)O3)O2)O1` (stereo partly drawn): 19 µM; `CCOc1ccc2c(c1)[n+]([O-])c(S(=O)(=O)c1ccc(C)cc1)c(N)[n+]2[O-]`: greater than 100 µM; `CC12CC[C@@H](C(C)(C)O)C1[C@@H](O)CC1(C)C2CCC2[C@@]3(C)CC[C@H](O)C(C)(C)C3C(O)C[C@]21C` (stereo partly drawn): 38.2 µM.
Take `CCOC(=O)NC(=O)c1cn(C2OC(COC(=O)CCCCCCCCC(=O)OCC3OC(n4cc(C(=O)NC(=O)OCC)c(=O)[nH]c4=O)C(O)C3O)C(O)C2O)c(=O)[nH]c1=O` (stereo not drawn): the TGI was greater than 100 µM.
The same measure, in the same setting: next, `N=C1CSC2=NC3=C(CCC/C3=C\c3ccccc3)C(c3ccccc3)N12` (stereo not drawn): 8.57 µM; `COc1ccccc1C1C(C(=O)Nc2ccccc2)=C(C)NC(C)=C1C(=O)Nc1ccccc1`: greater than 100 µM; `CCCCCCCCCCCC(=O)CC(=O)c1c(O)cccc1O`: 34.6 µM.
Same read-out and setting: then `Cc1cc2c(cc1C)[n+](=O)c(C(=O)CC(=O)C(=O)Nc1c(C(C)C)cccc1C(C)C)c(C)n2[O-]`, with greater than 100 µM.
The same measure, in the same setting: then `COc1ccc2cc1Oc1ccc(cc1)CC1c3cc(c(OC)cc3CCN1C)Oc1c3c(cc4c1C(C2)N(C)CC4)OCO3` (stereo not drawn), with 17.5 µM.

For another experiment, the system named is HCT-116 colon. Briefly: DTP human tumour cell line panel, 48 h.
Molecule `OCCC1(O)CCC(O)CC1` (stereo not drawn) came in with a TGI greater than 100 µM.
Regarding `CC(C)CC(=O)[O-].CC(C)CC(=O)[O-].N.N.N.N.[Co+3].[O-][Cl+3]([O-])([O-])[O-]`, the GI50 is greater than 100 µM and the TGI was greater than 100 µM.
The molecule `COC(=O)CC(=O)C[P+](c1ccccc1)(c1ccccc1)c1ccccc1` had a concentration for total growth inhibition (TGI) greater than 218 µM.
The same measure, in the same setting: next, `CCCCN(CCCC)C(=O)C(=O)C(C#N)c1ccc(C)cc1` (stereo not drawn): greater than 100 µM; `Cc1ccc(S(=O)(=O)C(CC(=O)N2CCCC2)C(=O)c2ccccc2)cc1` (stereo not drawn): greater than 100 µM.
On the same count and under the same terms, next, `CC1(C)CC(/C=C2/OC(=O)c3ccccc32)=C(C#N)C(=O)O1`: greater than 100 µM; `Cc1nc2c(nc1Cl)nc(Oc1ccc(Cl)cc1)c1ccccc12`: greater than 100 µM; `CC(=O)Nc1ccccc1Sc1ccccc1`: greater than 100 µM.
Still for that read-out and setting: next, `CC1OC(n2cc(F)c(=O)[nH]c2=O)CCC1O` (stereo not drawn): greater than 100 µM.
